IC50 data for 49 compounds are collected here from patent US11780845B2 (Relay Therapeutics, Inc., priority 2019, dated 2023).

A value given as a limit tells only on which side of the number the result lay.

Experiment [1] deals with FGFR2 (Homo sapiens (Human), UniProt P21802). Nature of the experiment: FGFR2 Biochemical Caliper Assay. As to the method: Compounds of the present invention were also tested in a FGFR2 Biochemical Caliper Assay. Compounds were prepared in 10 mM DMSO solution and serially diluted into 11 concentrations by 3-fold dilution. […] 5 uL of ATP solution (100 uM) was added to start the reaction and the plate was incubated for 90 minutes, then 70 uL of stopping buffer (0.5M EDTA) was added to terminate the reaction. Each well was analyzed using EZ reader.

Experiment [2] has as its system SNU16 cells. Put plainly: SNU16 Cancer Cell Line Proliferation Assay. Conditions: SNU-16 cells. It is filed as cell-based. Summed up: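 SNU16 cells were seeded, held 24 h at 37 degrees, then dosed with an 11-point 3-fold dilution series prepared from a 10 mM DMSO stock. After 96 h incubation, viability was read by CellTiter Glo luminescence.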

Chain of FGFR2 (P21802 22-821): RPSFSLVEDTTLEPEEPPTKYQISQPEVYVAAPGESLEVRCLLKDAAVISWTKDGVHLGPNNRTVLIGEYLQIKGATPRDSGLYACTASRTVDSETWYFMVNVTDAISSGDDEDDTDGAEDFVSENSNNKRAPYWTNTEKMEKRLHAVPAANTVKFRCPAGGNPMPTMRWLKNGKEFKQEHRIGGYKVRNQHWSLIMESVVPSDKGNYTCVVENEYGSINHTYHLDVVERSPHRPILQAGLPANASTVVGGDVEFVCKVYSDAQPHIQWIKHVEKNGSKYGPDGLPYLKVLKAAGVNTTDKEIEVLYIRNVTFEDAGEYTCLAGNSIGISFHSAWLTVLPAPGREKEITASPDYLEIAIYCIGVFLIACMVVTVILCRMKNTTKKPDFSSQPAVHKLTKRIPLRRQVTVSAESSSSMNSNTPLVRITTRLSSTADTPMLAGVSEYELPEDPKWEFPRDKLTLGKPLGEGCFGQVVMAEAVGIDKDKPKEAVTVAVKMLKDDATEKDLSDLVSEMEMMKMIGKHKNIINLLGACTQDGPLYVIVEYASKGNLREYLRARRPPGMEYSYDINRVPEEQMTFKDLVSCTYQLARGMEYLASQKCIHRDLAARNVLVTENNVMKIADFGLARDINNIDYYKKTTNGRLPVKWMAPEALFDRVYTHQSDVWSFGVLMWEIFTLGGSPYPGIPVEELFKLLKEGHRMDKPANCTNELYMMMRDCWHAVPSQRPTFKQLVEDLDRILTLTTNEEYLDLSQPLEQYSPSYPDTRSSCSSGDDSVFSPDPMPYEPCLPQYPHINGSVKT

Usually IC50 stands for the concentration needed to halve the response being measured. Read a high IC50 as weaker potency. As to `C=C(C)C(=O)Nc1ccc(-c2c(C3=CC[C@@H](C(=O)N4CCCC4)CC3)c3c(N)ncnc3n2C)cc1` (single isomer, unassigned) [Example 397], the IC50 in experiment [1] fell in the range of 1000 to 100000 nM; in experiment [2] (Homo sapiens), 250 to 1000 nM.
As for `C=C(C)C(=O)Nc1ccc(-c2c(-c3ccc(C(=O)N4CC5CCCC5C4)cc3)c3c(N)ncnc3n2C)cc1` (centres unmarked) [Example 154], the IC50 is 100 to 250 nM in experiment [1] and not above 100 nM in experiment [2] (Homo sapiens).
For `C=CC(=O)Nc1ccc(-c2c(-c3ccc(C(=O)N4CCCC4)cc3)c3c(N)ncnc3n2C)c(F)c1` [Example 213], in that order: less than 100 nM and not above 100 nM.
Taken in the same sequence, the figures for `C=CC(=O)N1CCC(c2c(-c3ccc(C(=O)C4CCCC4)cc3)c3c(N)ncnc3n2C)C1` (centres unmarked) [Example 784] were 1000 to 100000 nM and 1000 to 100000 nM.
Taken in the same sequence, the figures for `CC#CC(=O)Nc1ccc(-c2[nH]c3ncnc(N)c3c2-c2ccc(Oc3cccc(C)n3)c(OC)c2)cc1` [Example 787] were less than 100 nM and not above 100 nM.
In the case of `C=C(C)C(=O)Nc1ccc(-c2c(-c3ccc(C(=O)N(C)Cc4ncon4)cc3)c3c(N)ncnc3n2C)cc1` [Example 324], the results for the IC50 in experiment [1] and in experiment [2] (Homo sapiens) were 1000 to 100000 nM and 250 to 1000 nM, respectively.
For `C=CC(=O)Nc1ccc(-c2c(-c3ccc(Oc4cccc(Cl)n4)c(OC)c3)c3c(N)ncnc3n2C)cc1` [Example 35], in that order: less than 100 nM and not above 100 nM.
Taken in the same sequence, the figures for `CC#CC(=O)N1CCC(c2[nH]c3ncnc(N)c3c2-c2ccc(C(=O)N3CCCC3)cc2)C1` (centres unmarked) [Example 774] were 1000 to 100000 nM and 1000 to 100000 nM.
For the compound `C=CC(=O)N1CC[C@H](c2[nH]c3ncnc(N)c3c2-c2ccc(Oc3cccc(C)n3)cc2)C1` (single isomer, unassigned) [Example 754], the half-inhibitory concentration (IC50) lay within 250 to 1000 nM in experiment [1] and 100 to 250 nM in experiment [2] (Homo sapiens).
Take `C=CC(=O)N1CCC(c2nnc(-c3c(-c4ccc(Oc5cccc(C)n5)cc4)c4c(N)ncnc4n3C)o2)CC1` [Example 651]: the half-maximal inhibitory concentration (IC50) in experiment [1] was 100 to 250 nM; in experiment [2] (Homo sapiens), not above 100 nM.
With `C=CC(=O)N1CCC(c2c(-c3ccc(NC(=O)NC4CC4)cc3)c3c(N)ncnc3n2C)C1` (centres unmarked) [Example 755], the IC50 was less than 100 nM in experiment [1] and 1000 to 100000 nM in experiment [2] (Homo sapiens).
Taken in the same sequence, the figures for `C=C(C)C(=O)Nc1ccc(-c2c(-c3ccc(C(=O)N4CCCCCC4)cc3)c3c(N)ncnc3n2C)cc1` [Example 230] were less than 100 nM and not above 100 nM.
For `C=CC(=O)NC1CC=C(c2c(-c3ccc(Oc4cccc(C)n4)c(OC)c3)c3c(N)ncnc3n2C)CC1` (centres unmarked) [Example 623], in that order: 100 to 250 nM and 100 to 250 nM.
For `C=C(C)C(=O)Nc1ccc(-c2c(-c3ccc(C(=O)N(C)Cc4nc(C)no4)cc3)c3c(N)ncnc3n2C)cc1` [Example 270], in that order: 250 to 1000 nM and 250 to 1000 nM.
`C=C(C)C(=O)Nc1ccc(-c2c(-c3ccc(Oc4cncc(C)n4)c(F)c3)c3c(N)ncnc3n2C)cc1` [Example 492]: the half-inhibitory concentration (IC50) in experiment [1] was less than 100 nM; in experiment [2] (Homo sapiens), not above 100 nM.
For `C=CC(=O)N1CC=C(c2c(-c3ccc(Oc4ncccn4)c(OC)c3)c3c(N)ncnc3n2C)CC1` [Example 674], in that order: less than 100 nM and not above 100 nM.
Taken in the same sequence, the figures for `C=CC(=O)N1CCCC(c2c(-c3ccc(Oc4cccc(C)n4)c(OC)c3)c3c(N)ncnc3n2C)C1` (centres unmarked) [Example 661] were 1000 to 100000 nM and 1000 to 100000 nM.
For `C=CC(=O)N1CCC(c2c(-c3cnn(C4CCOC4)c3)c3c(N)ncnc3n2C)C1` (centres unmarked) [Example 736], in that order: 1000 to 100000 nM and 1000 to 100000 nM.
Regarding `C=C(C)C(=O)Nc1ccc(-c2c(-c3ccc(C(=O)NCC4CCCO4)cc3)c3c(N)ncnc3n2C)cc1` (centres unmarked) [Example 376], the 50% inhibitory concentration (IC50) is less than 100 nM in experiment [1] and not above 100 nM in experiment [2] (Homo sapiens).
Taken in the same sequence, the figures for `C=CC(=O)N1CC=C(c2c(-c3ccc(Oc4ccccc4)cc3)c3c(N)ncnc3n2C)CC1` [Example 603] were less than 100 nM and not above 100 nM.
As for `C=C(C)C(=O)Nc1ccc(-c2c(-c3ccc(C(=O)N4CC5CCC4CO5)cc3)c3c(N)ncnc3n2C)cc1` (centres unmarked) [Example 238], the 50% inhibitory concentration (IC50) in experiment [1] and in experiment [2] (Homo sapiens) was 250 to 1000 nM in each case.
For `C=C(C)C(=O)Nc1ccc(-c2c(-c3ccc(C(=O)NC(CF)CF)cc3)c3c(N)ncnc3n2C)cc1` [Example 371], the values for the IC50 in experiment [1] and in experiment [2] (Homo sapiens) were less than 100 nM and not above 100 nM, respectively.
For the compound `C=C(C)C(=O)Nc1ccc(-c2c(-c3ccc(Oc4nccc(C)n4)c(F)c3)c3c(N)ncnc3n2C)c(C(F)F)c1` [Example 526], the 50% inhibitory concentration (IC50) was less than 100 nM in experiment [1] and not above 100 nM in experiment [2] (Homo sapiens).
With `C=CC(=O)Nc1ccc(-c2c(-c3ccc(Oc4ncc(Cl)cn4)cc3)c3c(N)ncnc3n2C)cc1` [Example 103], the figures for the 50% inhibitory concentration (IC50) in experiment [1] and in experiment [2] (Homo sapiens) were less than 100 nM and not above 100 nM, respectively.
For the compound `C=C(C)C(=O)Nc1ccc(-c2c(-c3ccc4c(c3)CCCN4C)c3c(N)ncnc3n2C)cc1` [Example 207], the IC50 in experiment [1] and in experiment [2] (Homo sapiens) was 250 to 1000 nM throughout.
`C=C(C)C(=O)Nc1ccc(-c2c(-c3ccc(Oc4nccc(C)n4)cc3)c3c(N)ncnc3n2C)c(CC)c1` [Example 521]: the half-maximal inhibitory concentration (IC50) in experiment [1] is less than 100 nM; in experiment [2] it was not above 100 nM.
Regarding `C=CC(=O)N1CCC(n2cc(-c3c(-c4ccc(Oc5ncccn5)cc4)c4c(N)ncnc4n3C)cn2)CC1` [Example 633], the half-maximal inhibitory concentration (IC50) in experiment [1] and in experiment [2] (Homo sapiens) was 100 to 250 nM in each case.
For the compound `C=CC(=O)N1CCC(c2c(-c3ccc(C(=O)N4CCC4)c(F)c3)c3c(N)ncnc3n2C)C1` (centres unmarked) [Example 727], the IC50 in experiment [1] and in experiment [2] (Homo sapiens) was 1000 to 100000 nM each time.
Consider `C=C(C)C(=O)Nc1ccc(-c2c(-c3ccc(NC(C)=O)c(OC)c3)c3c(N)ncnc3n2C)cc1` [Example 86], for which the figures for the half-inhibitory concentration (IC50) in experiment [1] and in experiment [2] (Homo sapiens) were 1000 to 100000 nM and 250 to 1000 nM, respectively.
Taken in the same sequence, the figures for `C=C(C)C(=O)Nc1ccc(-c2c(-c3ccc(Sc4ncccn4)cc3)c3c(N)ncnc3n2C)cc1` [Example 69] were 250 to 1000 nM and 250 to 1000 nM.
Regarding `C=CC(=O)N1CCC(c2c(-c3ccc(CN4CCC(C)(C)C4)cc3)c3c(N)ncnc3n2C)C1` (centres unmarked) [Example 753], the IC50 in experiment [1] and in experiment [2] (Homo sapiens) was 1000 to 100000 nM each time.
With `C=C(C)C(=O)Nc1ccc(-c2c(-c3ccc(Oc4ncc(F)cn4)c(C#N)c3)c3c(N)ncnc3n2C)cc1` [Example 429], the half-inhibitory concentration (IC50) in experiment [1] and in experiment [2] (Homo sapiens) was 100 to 250 nM each time.
As for `C=CC(=O)N1CCC(n2ncc(-c3c(-c4ccc(Oc5cccc(C)n5)c(OC)c4)c4c(N)ncnc4n3C)c2C)CC1` [Example 673], the half-maximal inhibitory concentration (IC50) in experiment [1] was less than 100 nM; in experiment [2] (Homo sapiens) it was not above 100 nM.
Taken in the same sequence, the figures for `C=CC(=O)N(C)C1CC(n2cc(-c3c(-c4ccc(Oc5cccc(C)n5)cc4)c4c(N)ncnc4n3C)cn2)C1` (centres unmarked) [Example 628] were less than 100 nM and not above 100 nM.
For the compound `C=C(C)C(=O)Nc1ccc(-c2c(-c3ccc(C(=O)NCC4(OC)CCC4)cc3)c3c(N)ncnc3n2C)cc1` [Example 351], the half-inhibitory concentration (IC50) was less than 100 nM in experiment [1] and not above 100 nM in experiment [2] (Homo sapiens).
Regarding `C=C(C)C(=O)Nc1ccc(-c2c(-c3ccc(Oc4ncc(F)cn4)c(OC)c3)c3c(N)ncnc3n2C)cc1` [Example 448], the IC50 in experiment [1] lay in the range of 250 to 1000 nM; in experiment [2] (Homo sapiens), 100 to 250 nM.
`C=C(C)C(=O)Nc1ccc(-c2c(-c3ccc(Oc4nccc(C)n4)c(C)c3)c3c(N)ncnc3n2C)c(F)c1` [Example 479]: the IC50 is less than 100 nM in experiment [1] and not above 100 nM in experiment [2] (Homo sapiens).
For `C=CC(=O)N1CCC(c2c(-c3ccc(C4CCOCC4)cc3)c3c(N)ncnc3n2C)C1` (centres unmarked) [Example 751], in that order: 250 to 1000 nM and 100 to 250 nM.
Taken in the same sequence, the figures for `CC#CC(=O)N1CCC(c2c(-c3ccc(C(=O)N4CCCC4)cc3)c3c(N)ncnc3n2C)C1` (centres unmarked) [Example 747] were less than 100 nM and not above 100 nM.
On to `C=C(C)C(=O)Nc1ccc(-c2c(-c3ccc(S(=O)(=O)C4CCCC4)cc3)c3c(N)ncnc3n2C)cc1` [Example 150], for which the IC50 in experiment [1] is less than 100 nM; in experiment [2] (Homo sapiens) it was not above 100 nM.
Taken in the same sequence, the figures for `C=C(C)C(=O)Nc1ccc(-c2c(-c3ccc(OC4CCOC4)c(C)c3)c3c(N)ncnc3n2C)cc1` (centres unmarked) [Example 202] were 250 to 1000 nM and 100 to 250 nM.
For `C=C(C)C(=O)Nc1ccc(-c2c(-c3ccc(C(=O)N4CCC(C)CC4)cc3)c3c(N)ncnc3n2C)cc1` [Example 190], in that order: 1000 to 100000 nM and 250 to 1000 nM.
On to `C/C=C/C(=O)N1CCC(n2cc(-c3c(-c4ccc(Oc5cccc(C)n5)cc4)c4c(N)ncnc4n3C)cn2)C1` (centres unmarked) [Example 640], for which the IC50 was less than 100 nM in experiment [1] and not above 100 nM in experiment [2] (Homo sapiens).
As to `C=C(C)C(=O)Nc1ccc(-c2c(-c3ccc(C(=O)NCC(C)(C)CO)cc3)c3c(N)ncnc3n2C)cc1` [Example 331], the figures for the IC50 in experiment [1] and in experiment [2] (Homo sapiens) were less than 100 nM and not above 100 nM, respectively.
For the compound `CN(C)C/C=C/C(=O)Nc1ccc(-c2c(-c3ccc(C(=O)N4CCCC4)cc3)c3c(N)ncnc3n2C)cc1` [Example 206], the half-inhibitory concentration (IC50) in experiment [1] was less than 100 nM; in experiment [2] (Homo sapiens), 100 to 250 nM.
For `C=CC(=O)N1CCCC(n2cc(-c3c(-c4ccc(Oc5ccccc5)cc4)c4c(N)ncnc4n3C)cn2)C1C` (centres unmarked) [Example 626], the values for the 50% inhibitory concentration (IC50) in experiment [1] and in experiment [2] (Homo sapiens) were 100 to 250 nM and 250 to 1000 nM, respectively.
For `C=C(C)C(=O)Nc1ccc(-c2c(-c3ccc(C(=O)N4CCCC4)cc3)c3c(N)ncnc3n2C)c(Cl)c1` [Example 434], in that order: less than 100 nM and not above 100 nM.
Taken in the same sequence, the figures for `C=C(C)C(=O)Nc1ccc(-c2c(-c3ccc(Oc4ncc(F)cn4)cc3)c3c(N)ncnc3n2C)c(F)c1` [Example 427] were less than 100 nM and not above 100 nM.
For `C=C(C)C(=O)Nc1ccc(-c2c(-c3ccc(Oc4cccc(C(F)(F)F)c4)nc3)c3c(N)ncnc3n2C)cc1` [Example 169], in that order: 1000 to 100000 nM and 250 to 1000 nM.
